From patent publication US12257243B2, “5-hydroxy-7-oxabicyclo[2.2.1]heptane-2-carboxamide derivatives for inducing chondrogenesis for treating joint damage” (NOVARTIS AG, priority 2018, dated 2025)

System: ALP in normal human articular chondrocytes (NHACs)
Assay: Alkaline Phosphatase (ALP) activity assay (staining and quantitation) in NHACs, prevention of chondrocyte hypertrophy
Format: cell-based
Conditions: Chondrocyte, 288 h, human IL-1 beta 10 ng/mL, 12 days; for IC50: Fast Blue RR staining, high content imaging, read-out: ALP in NHAC IC50; for Emax: value in parentheses, read-out: ALP in NHAC (% Efficacy)
Protocol: The compounds of the present invention were evaluated in the Alkaline Phosphatase (ALP) activity assay to determine the ability of the compounds to prevent chondrocyte hypertrophy in normal human articular chondrocytes (NHACs).
Normal human articular chondrocytes (NHACs) were purchased from PromoCell (Heidelberg, Germany) and grown in Chondrocyte Growth Medium (CGM; Lonza, Walkersville, Md.).
NHACs were expanded in Chondrocyte Growth Medium (CGM) from Lonza until they reached a 60-80% confluency. To initiate differentiation, 7,500 cells were plated/well with indicated test compound dose in 384-well Cell Carrier Ultra plates (Perkin Elmer) with DMEM (SH30022—HyClone) containing 10% FBS (35-015-CV—Corning), 1% Pen/Strep antibiotics (SV30010—HyClone), and 1% Normocin (50 mg/mL—InvivoGen). Cells with test compounds were incubated at 37° C., 5% CO2 for 5 hours and then added human IL-1 beta (AF-200-1B—Peprotech) to each well at a final concentration of 10 ng/mL and incubated at 37° C., 5% CO2 for 12 days.
To detect the presence of hypertrophic cells, NHACs were fixed with 4% paraformaldehyde and Hoechst 33342 (Invitrogen) dye for 30 minutes, rinsed in PBS, then stained with Fast Blue RR Salt (F0500—Sigma) with Naphthol AS-MX Phosphate Alkaline Solution, 0.25% (855—Sigma-Aldrich).
The staining was imaged by fluorescent microscopy, using the 561 nm wavelength, and/or quantified by high content imaging with the Image press Confocal (Molecular Devices, Sunnyvale, Calif.). Data analyses were performed with a customized multiwavelength cell-scoring application.

Compound: O=C(Nc1cc(C(F)(F)F)ccc1F)[C@@H]1[C@@H](c2cccc(C(F)(F)F)c2)[C@H]2O[C@@H]1C[C@@H]2O (racemic) [Example 1, rac-(1R,2R,3S,4R,5S)—N-(2-fluoro-5-(trifluoromethyl)phenyl)-5-hydroxy-3-(3-(trifluoromethylphenyl)-7-oxabicyclo[2.2.1]heptane-2-carboxamide]
- IC50: 29 µM
- Emax: 60%

Compound: O=C(Nc1ccc(C(F)(F)F)c(Cl)c1)[C@@H]1[C@@H](c2cccc(C(F)(F)F)c2)[C@H]2O[C@@H]1C[C@@H]2O (racemic) [Example 2, rac-(1R,2R,3S,4R,5S)—N-(3-chloro-4-(trifluoromethylphenyl)-5-hydroxy-3-(3-(trifluoromethyl)phenyl)-7-oxabicyclo[2.2.1]heptane-2-carboxamide]
- IC50: 8.4 µM
- Emax: 102%

Compound: O=C(Nc1ccc(C(F)(F)F)c(F)c1)[C@@H]1[C@@H](c2cccc(C(F)(F)F)c2)[C@H]2O[C@@H]1C[C@@H]2O (racemic) [Example 3, rac-(1R,2R,3S,4R,5S)—N-(3-fluoro-4-(trifluoromethyl)phenyl)-5-hydroxy-3-(3-(trifluoromethyl)phenyl)-7-oxabicyclo[2.2.1]heptane-2-carboxamide]
- IC50: 12 µM
- Emax: 77%

Compound: O=C(Nc1cc(C(F)(F)F)ccn1)[C@@H]1[C@@H](c2cccc(C(F)(F)F)c2)[C@H]2O[C@@H]1C[C@@H]2O (racemic) [Example 4, rac-(1R,2R,3S,4R,5S)-5-hydroxy-3-(3-trifluoromethyl)phenyl)-N-(4-(trifluoromethyl)pyridin-2-yl)-7-oxabicyclo[2.2.1]heptane-2-carboxamide]
- IC50: 7.1 µM
- Emax: 90%

Compound: O=C(Nc1cc(C(F)(F)F)cc(Cl)n1)[C@@H]1[C@@H](c2cccc(C(F)(F)F)c2)[C@H]2O[C@@H]1C[C@@H]2O (racemic) [Example 5, rac-(1R,2R,3S,4R,5S)—N-(6-chloro-4-(trifluoromethyl)pyridin-2-yl)-5-hydroxy-3-(3-(trifluoromethyl)phenyl)-7-oxabicyclo[2.2.1]heptane-2-carboxamide]
- IC50: 27 µM
- Emax: 82%

Compound: O=C(Nc1cc(C(F)(F)F)c(Cl)cn1)[C@@H]1[C@@H](c2cccc(C(F)(F)F)c2)[C@H]2O[C@@H]1C[C@@H]2O (racemic) [Example 6, rac-(1R,2R,3S,4R 5S)—N-(5-chloro-4-(trifluoromethyl)pyridin-2-yl)-5-hydroxy-3-(3-(trifluoromethyl)phenyl)-7-oxabicyclo[2.2.1]heptane-2-carboxamide]
- IC50: > 30 µM
- Emax: 38%

Compound: O=C(Nc1cc(C(F)(F)F)cc(C2CC2)n1)[C@@H]1[C@@H](c2cccc(C(F)(F)F)c2)[C@H]2O[C@@H]1C[C@@H]2O (racemic) [Example 7, rac-(1R,2R,3S,4R 5S)—N-(6-cyclopropyl-4-(trifluoromethyl)pyridin-2-yl)-5-hydroxy-3-(3-(trifluoromethyl)phenyl)-7-oxabicyclo[2.2.1]heptane-2-carboxamide]
- IC50: > 30 µM
- Emax: 12%

Compound: Cc1cc(C(F)(F)F)cc(NC(=O)[C@@H]2[C@@H](c3cccc(C(F)(F)F)c3)[C@H]3O[C@@H]2C[C@@H]3O)n1 (racemic) [Example 8, rac-(1R,2R,3S,4R,5S)-5-hydroxy-N-(6-methyl-4-(trifluoromethyl)pyridin-2-yl)-3-(3-(trifluoromethyl)phenyl)-7-oxabicyclo[2.2.1]heptane-2-carboxamide]
- IC50: 17 µM
- Emax: 100%

Compound: CCOc1cc(C(F)(F)F)cc(NC(=O)[C@@H]2[C@@H](c3cccc(C(F)(F)F)c3)[C@H]3O[C@@H]2C[C@@H]3O)n1 (racemic) [Example 9, rac-(1R 2R,3S,4R,5S)—N-(6-ethoxy-4-(trifluoromethyl)pyridin-2-yl-5-hydroxy-3-(3-(trifluoromethyl)phenyl)-7-oxabicyclo[2.2.1]heptane-2-carboxamide]
- IC50: 12 µM
- Emax: 108%
